Where two headings read alike, the source gives them in different places.
Molecular target: TAAR1 (Mus musculus (Mouse), UniProt Q923Y8)
Experiment: TAAR1 radioligand binding assay ([3H]-rac-2-(1,2,3,4-tetrahydro-1-naphthyl)-2-imidazoline, membranes of stably transfected HEK293 cells)
[1] = read-out: Ki (μM) mouse, mouse TAAR1, radioligand [3H]-rac-2-(1,2,3,4-tetrahydro-1-naphthyl)-2-imidazoline at 60 nM, 4° C., 30 minutes

Sequence of TAAR1 (Q923Y8 whole entry): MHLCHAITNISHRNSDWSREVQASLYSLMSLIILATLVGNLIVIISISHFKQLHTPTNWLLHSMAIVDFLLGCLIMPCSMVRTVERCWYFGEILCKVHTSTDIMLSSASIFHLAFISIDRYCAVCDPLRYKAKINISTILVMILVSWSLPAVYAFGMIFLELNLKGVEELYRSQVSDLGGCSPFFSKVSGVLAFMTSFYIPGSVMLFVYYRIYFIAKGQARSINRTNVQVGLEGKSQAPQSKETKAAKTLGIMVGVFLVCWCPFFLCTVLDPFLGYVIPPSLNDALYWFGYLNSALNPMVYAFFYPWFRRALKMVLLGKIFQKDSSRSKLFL
Description: The ability of the compounds of the present invention to bind to TAAR1 was investigated in accordance with the test given hereinafter.
For the generation of stably transfected cell lines HEK293 cells were transfected with the pIRESneo2 expression plasmids containing the TAAR coding sequences (described above) with Lipofectamine 2000 (Invitrogen) according to the instructions of the manufacturer, and 24 hours post transfection the culture medium was supplemented with 1 mg/ml G418 (Sigma, Buchs, Switzerland). After a culture period of about 10 days, clones were isolated, expanded and tested for responsiveness to trace amines (all compounds purchased from Sigma) with the cAMP Biotrak Enzyme immunoassay (EIA) System (Amersham) following the non-acetylation EIA procedure provided by the manufacturer.
Cells at confluence were rinsed with ice-cold phosphate buffered saline without Ca^2+ and Mg^2+ containing 10 mM EDTA and pelleted by centrifugation at 1000 rpm for 5 min at 4° C. The pellet was then washed twice with ice-cold phosphate buffered saline and cell pellet was frozen immediately by immersion in liquid nitrogen and stored until use at −80° C. The cell pellet was then suspended in 20 ml HEPES-NaOH (20 mM), pH 7.4 containing 10 mM EDTA, and homogenized with a Polytron (PT 3000, Kinematica) at 10,000 rpm for 10 seconds. The homogenate was centrifuged at 48,000×g for 30 minutes at 4° C. and the pellet resuspended in 20 ml HEPES-NaOH (20 mM), pH 7.4 containing 0.1 mM EDTA (buffer A), and homogenized with a Polytron at 10,000 rpm for 10 seconds. The homogenate was then centrifuged at 48,000×g for 30 minutes at 4° C. and the pellet resuspended in 20 ml buffer A, and homogenized with a Polytron at 10,000 rpm for 10 seconds. […] The homogenate was then centrifuged at 48,000×g for 10 minutes at 4° C., resuspended in HEPES-NaOH (20 mM), pH 7.0 including MgCl2 (10 mM) and CaCl2 (2 ml) (buffer B) at 200 μg protein per ml and homogenized with a Polytron at 10,000 rpm for 10 seconds.
Binding assay was performed at 4° C. in a final volume of 1 ml, and with an incubation time of 30 minutes. […] Non-specific binding was defined as the amount of [^3H]-rac-2-(1,2,3,4-tetrahydro-1-naphthyl)-2-imidazoline bound in the presence of the appropriate unlabelled ligand (10 μM). Competing ligands were tested in a wide range of concentrations (10 pM-30 μM). […] Each experiment was performed in duplicate. All incubations were terminated by rapid filtration through UniFilter-96 plates (Packard Instrument Company) and glass filter GF/C, pre-soaked for at least 2 h in polyethylenimine 0.3%, and using a Filtermate 96 Cell Harvester (Packard Instrument Company). The tubes and filters were then washed 3 times with 1 ml aliquots of cold buffer B. Filters were not dried and soaked in Ultima gold (45 D/well, Packard Instrument Company) and bound radioactivity was counted by a TopCount Microplate Scintillation Counter (Packard Instrument Company).

SMILES	Ki [1]	Ki
CCN(Cc1cnc[nH]1)c1cccc(OC(F)F)c1 [Example 195, (3-Difluoromethoxy-phenyl)-ethyl-(3H-imidazol-4-ylmethyl)-amine]	0.0042 µM	–
Clc1cccc(Oc2cccc(NCc3cnc[nH]3)c2)c1 [Example 200, [3-(3-Chloro-phenoxy)-phenyl]-(3H-imidazol-4-ylmethyl)-amine]	0.0028 µM	–
Fc1ccc(NCc2cnc[nH]2)cc1Oc1ccccc1 [Example 202, (4-Fluoro-3-phenoxy-phenyl)-(3H-imidazol-4-ylmethyl)-amine]	0.0084 µM	–
COc1cc(N(Cc2cnc[nH]2)C(C)C)ccc1Cl [Example 204, (4-Chloro-3-methoxy-phenyl)-(3H-imidazol-4-ylmethyl)-isopropyl-amine]	0.005 µM	–
CC(C)N(Cc1cnc[nH]1)c1cccc(Oc2cccc(Cl)c2)c1 [Example 206, [3-(3-Chloro-phenoxy)-phenyl]-(3H-imidazol-4-ylmethyl)-isopropyl-amine]	0.005 µM	–
CC(C)N(Cc1cnc[nH]1)c1cccc(COc2ccccc2)c1 [Example 207, (3H-Imidazol-4-ylmethyl)-isopropyl-(3-phenoxymethyl-phenyl)-amine]	0.002 µM	–
CC(C)N(Cc1cnc[nH]1)c1ccc(F)c(Oc2ccccc2)c1 [Example 208, (4-Fluoro-3-phenoxy-phenyl)-(3H-imidazol-4-ylmethyl)-isopropyl-amine]	0.003 µM	–
Brc1cccc(NCc2cnc[nH]2)c1 [Example 225, (3-Bromo-phenyl)-(3H-imidazol-4-ylmethyl)-amine]	0.001 µM	–
FC(F)(F)c1cc(Br)cc(NCc2cnc[nH]2)c1 [Example 226, (3-Bromo-5-trifluoromethyl-phenyl)-(3H-imidazol-4-ylmethyl)-amine]	0.001 µM	–
CC(C)c1cccc(NCc2cnc[nH]2)c1 [Example 228, (3H-Imidazol-4-ylmethyl)-(3-isopropyl-phenyl)-amine]	0.002 µM	–
CCN(Cc1cnc[nH]1)c1nc(Cl)cc(Cl)n1 [Example 237, (4,6-Dichloro-pyrimidin-2-yl)-ethyl-(1H-imidazol-4-ylmethyl)-amine]	0.004 µM	–
CC(C)N(Cc1cnc[nH]1)c1cccc(Br)c1 [Example 242, (3-Bromo-phenyl)-(3H-imidazol-4-ylmethyl)-isopropyl-amine]	0.001 µM	–
CC(C)N(Cc1cnc[nH]1)c1cccc(Br)n1 [Example 244, (6-Bromo-pyridin-2-yl)-(3H-imidazol-4-ylmethyl)-isopropyl-amine]	0.004 µM	–
CCN(Cc1cnc[nH]1)c1ccc(Cl)c(Cl)c1 [Example 247, (3,4-Dichloro-phenyl)-ethyl-(1H-imidazol-4-ylmethyl)-amine]	0.001 µM	–
CCN(Cc1cnc[nH]1)c1cccc(C(F)(F)F)n1 [Example 251, Ethyl-(1H-imidazol-4-ylmethyl)-(6-trifluoromethyl-pyridin-2-yl)-amine]	–	0.009 µM
CCN(Cc1cnc[nH]1)c1cccc(Br)c1 [Example 275, (3-Bromo-phenyl)-ethyl-(3H-imidazol-4-ylmethyl)-amine]	0.001 µM	–
Fc1cc(F)cc(NCc2cnc[nH]2)c1 [Example 277, (3,5-Difluoro-phenyl)-(1H-imidazol-4-ylmethyl)-amine]	0.006 µM	–
Brc1ccc(NCc2cnc[nH]2)cc1Br [Example 279, (3,4-Dibromo-phenyl)-(1H-imidazol-4-ylmethyl)-amine]	0.004 µM	–
Fc1ccc(NCc2cnc[nH]2)cc1Cl [Example 281, (3-Chloro-4-fluoro-phenyl)-(1H-imidazol-4-ylmethyl)-amine]	0.004 µM	–
CN(Cc1cnc[nH]1)c1cccc(Br)c1 [Example 284, (3-Bromo-phenyl)-(3H-imidazol-4-ylmethyl)-methyl-amine]	0.002 µM	–

SMILES	Ki [1]	Ki
CN(Cc1cnc[nH]1)c1ccc(F)c(F)c1 [Example 287, (3,4-Difluoro-phenyl)-(1H-imidazol-4-ylmethyl)-methyl-amine]	0.007 µM	–
CN(Cc1cnc[nH]1)c1ccc(Cl)c(Cl)c1 [Example 288, (3,4-Dichloro-phenyl)-(1H-imidazol-4-ylmethyl)-methyl-amine]	0.002 µM	–
CN(Cc1cnc[nH]1)c1cc(Cl)cc(Cl)c1 [Example 291, (3,5-Dichloro-phenyl)-(1H-imidazol-4-ylmethyl)-methyl-amine]	0.001 µM	–
CN(Cc1cnc[nH]1)c1cc(F)cc(F)c1 [Example 292, (3,5-Difluoro-phenyl)-(1H-imidazol-4-ylmethyl)-methyl-amine]	0.007 µM	–
CC(C)N(Cc1cnc[nH]1)c1ccc(Br)cc1 [Example 296, (4-Bromo-phenyl)-(1H-imidazol-4-ylmethyl)-isopropyl-amine]	0.004 µM	–
CC(C)N(Cc1cnc[nH]1)c1ccc(Br)c(Br)c1 [Example 297, (3,4-Dibromo-phenyl)-(1H-imidazol-4-ylmethyl)-isopropyl-amine]	0.001 µM	–
CCN(Cc1cnc[nH]1)c1ccc(Br)cc1 [Example 302, (4-Bromo-phenyl)-ethyl-(1H-imidazol-4-ylmethyl)-amine]	0.003 µM	–
CCN(Cc1cnc[nH]1)c1cc(Cl)cc(Cl)c1 [Example 303, (3,5-Dichloro-phenyl)-ethyl-(1H-imidazol-4-ylmethyl)-amine]	0.001 µM	–
CCN(Cc1cnc[nH]1)c1ccc(Br)c(F)c1 [Example 305, (4-Bromo-3-fluoro-phenyl)-ethyl-(1H-imidazol-4-ylmethyl)-amine]	0.002 µM	–
CCN(Cc1cnc[nH]1)c1cc(F)cc(F)c1 [Example 306, (3,5-Difluoro-phenyl)-ethyl-(1H-imidazol-4-ylmethyl)-amine]	0.002 µM	–
CCN(Cc1cnc[nH]1)c1ccc(Cl)c(F)c1 [Example 307, (4-Chloro-3-fluoro-phenyl)-ethyl-(1H-imidazol-4-ylmethyl)-amine]	0.002 µM	–
CCN(Cc1cnc[nH]1)c1cc(F)cc(Cl)c1 [Example 308, (3-Chloro-5-fluoro-phenyl)-ethyl-(1H-imidazol-4-ylmethyl)-amine]	0.001 µM	–
CCN(Cc1cnc[nH]1)c1ccc(F)c(Br)c1 [Example 309, (3-Bromo-4-fluoro-phenyl)-ethyl-(1H-imidazol-4-ylmethyl)-amine]	0.003 µM	–
CCN(Cc1cnc[nH]1)c1ccc(F)c(Cl)c1 [Example 312, (3-Chloro-4-fluoro-phenyl)-ethyl-(1H-imidazol-4-ylmethyl)-amine]	0.001 µM	–
CCN(Cc1cnc[nH]1)c1ccc(Cl)c(OC)c1 [Example 324, (4-Chloro-3-methoxy-phenyl)-ethyl-(1H-imidazol-4-ylmethyl)-amine]	0.002 µM	–
Clc1cc(NCc2cnc[nH]2)ccc1Br [Example 325, (4-Bromo-3-chloro-phenyl)-(1H-imidazol-4-ylmethyl)-amine]	0.002 µM	–
FC(F)(F)Oc1ccc(NCc2cnc[nH]2)cc1Cl [Example 327, (3-Chloro-4-trifluoromethoxy-phenyl)-(1H-imidazol-4-ylmethyl)-amine]	0.002 µM	–
CC(C)N(Cc1cnc[nH]1)c1ccc(Br)c(Cl)c1 [Example 331, (4-Bromo-3-chloro-phenyl)-(1#H!-imidazol-4-ylmethyl)-isopropyl-amine]	0.001 µM	–
CCN(Cc1cnc[nH]1)c1ccc(OC(F)(F)F)c(Cl)c1 [Example 333, (3-Chloro-4-trifluoromethoxy-phenyl)-ethyl-(1H-imidazol-4-ylmethyl)-amine]	0.001 µM	–
